# According to article PMC9572513, “Novel Unsymmetric 3,5-Bis(benzylidene)-4-piperidones That Display Tumor-Selective Toxicity” (Molecules, 2022):
# Where two headings read alike, the source gives them in different places.
# What was measured:
# [1] = test system: HGF, HPLF, and HPC non-malignant cells; assay: Average over HGF, HPLF and HPC non-malignant oral cells; assay type: cell-based, human; settings: average of HGF
# Description: (§1) The method for evaluating 2a–f and 3a–e against human oral squamous cell carcinoma (OSCC) cell lines (Ca9-22, HSC-2, HSC-3, HSC-4) and human non-malignant oral cells [human gingival fibroblast (HGF), human periodontal ligament fibroblast (HPLF), and human pulp cell (HPC)] have been reported previously, except the length of time of this bioassay was extended from 24 h to 48 h. In brief, different quantities of the compounds were incubated with the cells in Dulbecco’s modified eagle medium (DMEM), which was supplemented with 10% FBS and antibiotics. The cell viability was determined by the 3-(4,5-dimethylthiazol-2-yl)-2,5-diphenyl-2H-tetrazolium bromide (MTT) method as summarized previously (Figure 4).
# [2] = test system: Ca9-22 squamous cell carcinoma cells; assay: MTT cytotoxicity against Ca9-22 squamous cell carcinoma; assay type: cell-based, human; settings: for CC50: 48 h, MTT, read-out: Ca9-22 CC50; for Ca9-22 SI: average CC50 HGF/HPLF/HPC divided by CC50 Ca9-22
# Description: as §1
# [3] = test system: HSC-2 squamous cell carcinoma cells; assay: MTT cytotoxicity against HSC-2 squamous cell carcinoma; assay type: cell-based, human; settings: for CC50: 48 h, MTT, read-out: HSC-2 CC50; for HSC-2 SI: average CC50 HGF/HPLF/HPC divided by CC50 HSC-2
# Description: as §1
# [4] = test system: HSC-4 squamous cell carcinoma cells; assay: MTT cytotoxicity against HSC-4 squamous cell carcinoma; assay type: cell-based, human; settings: for CC50: 48 h, MTT, read-out: HSC-4 CC50; for HSC-4 SI: average CC50 HGF/HPLF/HPC divided by CC50 HSC-4
# Description: as §1
# [5] = test system: HSC-3 squamous cell carcinoma cells; assay: MTT cytotoxicity against HSC-3 squamous cell carcinoma; assay type: cell-based, human; settings: for CC50: 48 h, MTT, read-out: HSC-3 CC50; for HSC-3 SI: average CC50 HGF/HPLF/HPC divided by CC50 HSC-3
# Description: as §1
# [6] = test system: Ca9-22, HSC-2, HSC-3, and HSC-4 squamous cell carcinoma cell lines; assay: Average over Ca9-22, HSC-2, HSC-3 and HSC-4 OSCC cell lines; assay type: cell-based, human; settings: for Average SI: average of SI for four OSCC cell lines; for CC50: average of four OSCC cell lines, read-out: Average CC50
# Description: as §1
# HPC non-malignant cells = assay: MTT cytotoxicity against human pulp cell (HPC); assay type: cell-based; settings: non-malignant oral cells, 48 h
# Description: as §1
# HGF non-malignant cells = assay: MTT cytotoxicity against human gingival fibroblast (HGF); assay type: cell-based; settings: non-malignant oral cells, 48 h
# Description: as §1
# HPLF non-malignant cells = assay: MTT cytotoxicity against human periodontal ligament fibroblast (HPLF); assay type: cell-based; settings: non-malignant oral cells, 48 h
# Description: as §1
# CEM cells [7] = assay: ROS production in CEM cells (carboxy-H2DCFDA, flow cytometry); assay type: cell-based, human; settings: CC50 and twice the CC50 concentrations
# Description: (§2) Apoptosis induction in Ca9-22 cells was evaluated by cell cycle analysis and Western blot analysis as described previously (Figure 5). Briefly, for the cell cycle analysis, cells were treated for 24 h with the test samples. Cells were then fixed, digested with RNase A, stained with propidium iodide, filtered through Falcon® cell trainers (Corning Inc., Corning, NY, USA), and then subjected to cell sorting. For the Western blot, cell lysates (equivalent to 5 µg protein) were applied to SDS-polyacrylamide gel electrophoresis. A literature method was used to determine whether representative compounds led to increases in the production of ROS [29]. In brief, CEM cells were treated with the compounds overnight, then with 6-carboxy-2′,7′-dichlorodihydrofluorescein diacetate (carboxy-H2DCFDA) and the samples were processed using flow cytometry.
# [8] = test system: HCT116 and HT29 colon cancer cells; assay: Average over HCT116 and HT29 colon cancer cells; assay type: cell-based, human
# Description: (§3) The culture medium was supplemented with 10% heat-inactivated fetal bovine serum (FBS) and 1% penicillin–streptomycin antibiotics. The time of the bioassays was 48 h. The determinations were undertaken in triplicate on three different occasions.
# [9] = Average over HGF, HPLF and HPC non-malignant oral cells; assay type: cell-based, human; settings: human, HPLF and HPC non-malignant oral cells (average), average of HGF
# Description: as §1
# Ca9-22 cells [10] = assay: Western blot for caspase 3 activation in Ca9-22 cells; assay type: cell-based, human; settings: 3 μM, 24 h
# Description: as §2
# CEM cells [11] = assay: Mitochondrial membrane potential in CEM cells (JC-1, flow cytometry); assay type: cell-based, human; settings: 7 h
# Description: The effect on the mitochondrial membrane potential in CEM cells was undertaken using a published method. In brief, the cells were incubated with different compounds for 7 h. The cells were then stained with the JC-1 dye, and the samples were examined by flow cytometry. The results are portrayed in Figure 6C.
# Ca9-22 cells [12] = assay: Cell cycle analysis in Ca9-22 cells (propidium iodide); assay type: cell-based, human; settings: dose-response 0.625-10 μM, 24 h
# Description: Apoptosis induction in Ca9-22 cells was evaluated by cell cycle analysis and Western blot analysis as described previously [25, 28] […] Briefly, for the cell cycle analysis, cells were treated for 24 h with the test samples. Cells were then fixed, digested with RNase A, stained with propidium iodide, filtered through Falcon® cell trainers (Corning Inc., Corning, NY, USA), and then subjected to cell sorting.
# [13] = MTT cytotoxicity against human pulp cell (HPC); assay type: cell-based; settings: human, human pulp cells (HPC), non-malignant oral cells
# Description: as §1
# [14] = MTT cytotoxicity against human gingival fibroblast (HGF); assay type: cell-based; settings: human, human gingival fibroblasts (HGF), non-malignant oral cells
# Description: as §1
# [15] = test system: CRL1790 non-malignant colon cells; assay: Cytotoxicity against CRL1790 non-malignant colon cells; assay type: cell-based; settings: Homo sapiens, 48 h
# Description: as §3
# HL-60 cells = assay: Differential DNA staining (DNS) cytotoxicity assay, HL-60 cells; assay type: cell-based; settings: Homo sapiens
# Description: (§4) The method used for generating the data of human acute lymphocytic leukemia (CEM) and human acute promyelocytic leukemia (HL-60) cells in Table 4 has been described previously. In brief, the cells were cultured in media supplemented with 10% FBS and antibiotics. […] The CC50 values of the compounds listed in Table 4 were obtained by linear interpolation equations [28, 29].
# CEM cells [16] = assay: Annexin V-FITC apoptosis assay in CEM cells; assay type: cell-based, human; settings: CC50 and twice the CC50 concentrations, 24 h
# Description: In order to discover if representative compounds induce apoptosis, the annexin V-FITC assay was used. In brief, CEM cells were treated with various compounds for 24 h. The cells were collected and stained with propidium iodide and annexin V-FITC.
# [17] = MTT cytotoxicity against human periodontal ligament fibroblast (HPLF); assay type: cell-based; settings: human, human periodontal ligament fibroblasts (HPLF), non-malignant oral cells
# Description: as §1
# CEM cells [18] = assay: Differential DNA staining (DNS) cytotoxicity assay, CEM cells; assay type: cell-based; settings: Homo sapiens, CCRF-CEM
# Description: as §4
smiles,measurement,setting,value
"[NH2][Pt]([NH2])([Cl])[Cl] [CDDP, cisplatin, reference compound]",CC50,[1],> 1000 µM
same,CC50,[2],212 µM
same,Ca9-22 SI,[2],>4.72
same,CC50,[3],204 µM
same,HSC-2 SI,[3],>4.90
same,CC50,[4],60.4 µM
same,HSC-4 SI,[4],>16.6
same,CC50,[5],46.9 µM
same,HSC-3 SI,[5],>21.3
same,Average SI,[6],>11.1
same,CC50,[6],131 µM
same,CC50,HPC non-malignant cells,> 1000 µM
same,CC50,HGF non-malignant cells,> 1000 µM
same,CC50,HPLF non-malignant cells,> 1000 µM
"CCN(CC)Cc1cc(C=C2CNCC(=Cc3ccc(OC)c(OC)c3)C2=O)ccc1O.Cl.Cl [Compound 2b, 3-(3-Diethylaminomethyl-4-hydroxybenzylidene)-5-(3,4-dimethoxybenzylidene)-4-piperidone dihydrochloride]",ROS generation,CEM cells [7],generate ROS
same,IC50,"[8]; Homo sapiens, average of HCT116 and HT29, unit printed only for the single cell-line columns",0.25 µM
same,Average SI,[8]; average of SI for HCT116 and HT29,64.2
same,PSE (potency-selectivity expression),"[8]; reciprocal of average IC50 x average SI x 100, colon cells","25,680"
same,CC50 at 48 h,[9],7.03 µM
same,CC50,"[2]; Homo sapiens, Ca9-22",0.65 µM
same,Ca9-22 SI,[2],10.8
same,CC50,"[3]; Homo sapiens, HSC-2",1.01 µM
same,HSC-2 SI,[3],6.96
same,caspase 3 activation (cleavage of PARP and procaspase),Ca9-22 cells [10],induced
same,depolarization of the mitochondrial membrane potential,CEM cells [11],induced
same,CC50,"[4]; Homo sapiens, HSC-4",1.16 µM
same,HSC-4 SI,[4],6.06
same,CC50,"[5]; Homo sapiens, HSC-3",0.76 µM
same,HSC-3 SI,[5],9.25
same,CC50,[6]; Homo sapiens,< 1 µM
same,Average SI,[6],8.27
same,CC50,[6],0.9 µM
same,optimal concentration for the subG1 population,Ca9-22 cells [12],2.5 µM
same,CC50 at 48 h,[13],2.3 µM
same,CC50 at 48 h,[14],13.3 µM
same,IC50,[15],15.2 ± 0.15 µM
same,CC50,"HL-60 cells; HL-60, 24 h, read-out: CC50 HL-60 Cells 24 h",7.75 ± 0.26 µM
same,CC50,"HL-60 cells; HL-60, 48 h, read-out: CC50 HL-60 Cells 48 h",4.82 ± 0.91 µM
same,apoptotic cells,CEM cells [16],approximately 30%
same,CC50 at 48 h,[17],5.5 µM
same,CC50,"CEM cells [18]; 24 h, read-out: CC50 CEM Cells 24 h",0.63 ± 0.08 µM
same,CC50,"CEM cells [18]; 48 h, read-out: CC50 CEM Cells 48 h",0.82 ± 0.03 µM
